Read-outs that look alike come from different tables or passages of the source.
Experiments:
[1] = system: T-Rex 293 cell line SC3 cells having increased expression of androgen receptor protein due to exposure to doxycycline; experiment: Cellular growth inhibition assay, T-Rex 293 SC3 cells with doxycycline (CellTiter-Glo, 72 hours); format: cell-based; conditions: T-Rex 293 SC3 cells with increased androgen receptor expression due to doxycycline (10 ng/mL)
In short: (§1)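 Doxycycline (10 ng/mL) was either included or omitted to toggle wild-type androgen receptor expression in SC3 cells, a T-Rex 293 clone, grown in stripped-serum, phenol red-free medium. After 72 hours with compound, viable cells were quantified by CellTiter-Glo 2.0.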

[2] = system: VCaP cells; experiment: Cellular growth inhibition assay for VCaP cells (CellTiter-Glo, 72 hours); format: cell-based, human
In short: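 Luminescent viability signal after 72 h of compound exposure gave GI50 values by four-parameter nonlinear regression. Compounds were added in 0.5% DMSO to cells plated 24 h earlier at 5000/well in DMEM containing 10% FBS.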

[3] = system: T-Rex 293 cell line SC3 cells lacking increased expression of androgen receptor protein; experiment: Cellular growth inhibition assay, T-Rex 293 SC3 cells without doxycycline (CellTiter-Glo, 72 hours); format: cell-based; conditions: T-Rex 293 cell line SC3 cells not exposed to doxycycline (lacking increased androgen receptor expression)
In short: as §1

| Structure (SMILES) | GI50 ([1]; 72 h) [µM] | GI50 ([2]; Homo sapiens, VCaP, 72 h) [µM] | GI50 ([3]; 72 h) [µM] | GI50 [2] [µM] | GI50 [3] [µM] | GI50 [1] [µM] |
| --- | --- | --- | --- | --- | --- | --- |
| COCC[C@@H]1N=C(c2ccc(N3CCC4(CCN(c5ccc(C(=O)N[C@H]6CC[C@H](Oc7ccc(C#N)c(Cl)c7)CC6)nn5)CC4)C3)cc2)c2c(sc(C)c2C)-n2c(C)nnc21 [I-600] | < 0.5 | > 3 | < 0.5 | – | – | – |
| Cc1sc2c(c1C)C(c1ccc(N3CC4(CC(Cc5ccc(C(=O)N[C@H]6CC[C@H](Oc7ccc(C#N)c(Cl)c7)CC6)nn5)C4)C3)cc1)=N[C@@H](C)c1nnc(C)n1-2 [I-604] | < 0.5 | < 0.5 | < 0.5 | – | – | – |
| Cc1sc2c(c1C)C(c1ccc(N3CCC4(CC3)CC(Cc3ccc(C(=O)N[C@H]5CC[C@H](Oc6ccc(C#N)c(Cl)c6)CC5)nn3)C4)cc1)=N[C@@H](C)c1nnc(C)n1-2 [I-605] | < 0.5 | < 0.5 | > 3 | – | – | – |
| Cc1sc2c(c1C)C(c1ccc(N3CCC(Cc4ccc(C(=O)N[C@H]5CC[C@H](Oc6ccc(C#N)c(Cl)c6)CC5)nn4)CC3)cc1)=N[C@@H](C)c1nnc(C)n1-2 [I-606] | < 0.5 | > 3 | > 3 | – | – | – |
| Cc1sc2c(c1C)C(c1ccc(C3CCC4(CC3)CCN(c3ccc(C(=O)N[C@H]5CC[C@H](Oc6ccc(C#N)c(Cl)c6)CC5)nn3)C4)nc1)=NC1(CC1)c1nnc(C)n1-2 (stereo partly drawn) [I-607] | < 0.5 | – | – | > 3 | > 3 | – |
| Cc1sc2c(c1C)C(c1ccc(C3CCC4(CC3)CCN(c3ccc(C(=O)N[C@H]5CC[C@H](Oc6ccc(C#N)c(Cl)c6)CC5)nn3)C4)nc1)=NC1(CC1)c1nnc(C)n1-2 (stereo partly drawn) [I-608] | – | – | – | < 0.5 | 0.5 to 1.5 | < 0.5 |
| Cc1sc2c(c1C)C(c1ccc(C3CCC4(CCN(c5ccc(C(=O)N[C@H]6CC[C@H](Oc7ccc(C#N)c(Cl)c7)CC6)nn5)CC4)C3)nc1)=NC1(CC1)c1nnc(C)n1-2 (stereo partly drawn) [I-609] | < 0.5 | < 0.5 | – | – | 0.5 to 1.5 | – |
| CC[C@@H]1N=C(c2ccc(N3CC4(CC(Cc5ccc(C(=O)N[C@H]6CC[C@H](Oc7ccc(C#N)c(Cl)c7)CC6)nn5)C4)C3)cc2)c2c(sc(C)c2C)-n2c(C)nnc21 [I-610] | < 0.5 | 0.5 to 1.5 | > 3 | – | – | – |
| CC[C@@H]1N=C(c2ccc(N3CC4(CC(CCc5ccc(C(=O)N[C@H]6CC[C@H](Oc7ccc(C#N)c(Cl)c7)CC6)nn5)C4)C3)cc2)c2c(sc(C)c2C)-n2c(C)nnc21 [I-611] | < 0.5 | < 0.5 | > 3 | – | – | – |
| CC[C@@H]1N=C(c2ccc(N3CCC4(CC3)CC(Cc3ccc(C(=O)N[C@H]5CC[C@H](Oc6ccc(C#N)c(Cl)c6)CC5)nn3)C4)cc2)c2c(sc(C)c2C)-n2c(C)nnc21 [I-612] | < 0.5 | < 0.5 | > 3 | – | – | – |
| CC[C@@H]1N=C(c2ccc(N3CCC(CCc4ccc(C(=O)N[C@H]5CC[C@H](Oc6ccc(C#N)c(Cl)c6)CC5)nn4)CC3)cc2)c2c(sc(C)c2C)-n2c(C)nnc21 [I-613] | < 0.5 | < 0.5 | 1.5 to 3 | – | – | – |
| CC[C@@H]1N=C(c2ccc(N3CCC(Cc4ccc(C(=O)N[C@H]5CC[C@H](Oc6ccc(C#N)c(Cl)c6)CC5)nn4)CC3)cc2)c2c(sc(C)c2C)-n2c(C)nnc21 [I-614] | < 0.5 | < 0.5 | 0.5 to 1.5 | – | – | – |
| COC[C@@H]1N=C(c2ccc(N3CCC4(CCN(c5ccc(C(=O)N[C@H]6CC[C@H](Oc7ccc(C#N)c(Cl)c7)CC6)nn5)CC4)C3)cc2)c2c(sc(C)c2C)-n2c(C)nnc21 [I-615] | < 0.5 | < 0.5 | < 0.5 | – | – | – |
| COCC[C@@H]1N=C(c2ccc(C3CCC4(CCN(c5ccc(C(=O)N[C@H]6CC[C@H](Oc7ccc(C#N)c(Cl)c7)CC6)nn5)CC4)C3)cc2)c2c(sc(C)c2C)-n2c(C)nnc21 (stereo partly drawn) [I-616] | < 0.5 | – | < 0.5 | > 3 | – | – |
| COCC[C@@H]1N=C(c2ccc(C3CCC4(CCN(c5ccc(C(=O)N[C@H]6CC[C@H](Oc7ccc(C#N)c(Cl)c7)CC6)nn5)CC4)C3)cc2)c2c(sc(C)c2C)-n2c(C)nnc21 (stereo partly drawn) [I-617] | – | – | – | < 0.5 | 0.5 to 1.5 | < 0.5 |
| Cc1sc2c(c1C)C(c1ccc(N3CCC4CN(c5ccc(C(=O)N[C@H]6CC[C@H](Oc7ccc(C#N)c(Cl)c7)CC6)nn5)CCC4C3)cc1)=N[C@@H](C)c1nnc(C)n1-2 (stereo partly drawn) [I-620] | – | – | – | < 0.5 | < 0.5 | < 0.5 |

| Structure (SMILES) | GI50 ([1]; 72 h) [µM] | GI50 ([2]; Homo sapiens, VCaP, 72 h) [µM] | GI50 ([3]; 72 h) [µM] | GI50 [2] [µM] | GI50 [3] [µM] | GI50 [1] [µM] |
| --- | --- | --- | --- | --- | --- | --- |
| Cc1sc2c(c1C)C(c1ccc(N3CCC4CN(c5ccc(C(=O)N[C@H]6CC[C@H](Oc7ccc(C#N)c(Cl)c7)CC6)nn5)CCC4C3)cc1)=N[C@@H](C)c1nnc(C)n1-2 (stereo partly drawn) [I-621] | – | – | – | 0.5 to 1.5 | > 3 | < 0.5 |
| Cc1sc2c(c1C)C(c1ccc(CC3CCC4(CCCN(c5ccc(C(=O)N[C@H]6CC[C@H](Oc7ccc(C#N)c(Cl)c7)CC6)nn5)C4)C3)cn1)=N[C@@H](C)c1nnc(C)n1-2 (stereo partly drawn) [I-622] | < 0.5 | – | < 0.5 | > 3 | – | – |
| Cc1sc2c(c1C)C(c1ccc(CC3CCC4(CCCN(c5ccc(C(=O)N[C@H]6CC[C@H](Oc7ccc(C#N)c(Cl)c7)CC6)nn5)C4)C3)cn1)=N[C@@H](C)c1nnc(C)n1-2 (stereo partly drawn) [I-623] | – | – | – | 0.5 to 1.5 | 0.5 to 1.5 | < 0.5 |
| Cc1sc2c(c1C)C(c1ccc(COC3CCC4(CCCN(c5ccc(C(=O)N[C@H]6CC[C@H](Oc7ccc(C#N)c(Cl)c7)CC6)nn5)C4)C3)cc1)=N[C@@H](C)c1nnc(C)n1-2 (stereo partly drawn) [I-624] | – | – | – | 0.5 to 1.5 | 0.5 to 1.5 | < 0.5 |
| Cc1sc2c(c1C)C(c1ccc(COC3CCC4(CCCN(c5ccc(C(=O)N[C@H]6CC[C@H](Oc7ccc(C#N)c(Cl)c7)CC6)nn5)C4)C3)cc1)=N[C@@H](C)c1nnc(C)n1-2 (stereo partly drawn) [I-625] | – | – | – | < 0.5 | < 0.5 | < 0.5 |
| Cc1sc2c(c1C)C(c1ccc(OCC3CCC4(CCCN(c5ccc(C(=O)N[C@H]6CC[C@H](Oc7ccc(C#N)c(Cl)c7)CC6)nn5)C4)C3)cc1)=N[C@@H](C)c1nnc(C)n1-2 (stereo partly drawn) [I-626] | < 0.5 | < 0.5 | < 0.5 | – | – | – |
| Cc1sc2c(c1C)C(c1ccc(OCC3CCC4(CCCN(c5ccc(C(=O)N[C@H]6CC[C@H](Oc7ccc(C#N)c(Cl)c7)CC6)nn5)C4)C3)cc1)=N[C@@H](C)c1nnc(C)n1-2 (stereo partly drawn) [I-627] | – | – | – | < 0.5 | < 0.5 | < 0.5 |
| Cc1sc2c(c1C)C(c1ccc(CC3CC(CC4CCN(c5ccc(C(=O)N[C@H]6CC[C@H](Oc7ccc(C#N)c(Cl)c7)CC6)nn5)CC4)C3)cc1)=N[C@@H](C)c1nnc(C)n1-2 (stereo partly drawn) [I-628] | < 0.5 | < 0.5 | > 3 | – | – | – |
| Cc1sc2c(c1C)C(c1ccc(CC3CC(CC4CCN(c5ccc(C(=O)N[C@H]6CC[C@H](Oc7ccc(C#N)c(Cl)c7)CC6)nn5)CC4)C3)cc1)=N[C@@H](C)c1nnc(C)n1-2 (stereo partly drawn) [I-629] | – | – | – | < 0.5 | > 3 | < 0.5 |
| Cc1sc2c(c1C)C(c1ccc(C3CCC4(CC3)CCN(c3ccc(C(=O)N[C@H]5CC[C@H](Oc6ccc(C#N)c(Cl)c6)CC5)nn3)CC4)nc1)=N[C@@H](C)c1nnc(C)n1-2 [I-630] | < 0.5 | – | < 0.5 | 1.5 to 3 | – | – |
| Cc1sc2c(c1C)C(Oc1ccc(C3CC4(CCN(c5ccc(C(=O)N[C@H]6CC[C@H](Oc7ccc(C#N)c(Cl)c7)CC6)nn5)CC4)C3)cc1)=NC(Cc1ncco1)c1nnc(C)n1-2 (stereo partly drawn) [I-631] | > 3 | < 0.5 | > 3 | – | – | – |
| CC[C@@H]1N=C(c2ccc(OC3(C)CC4(CN(c5ccc(C(=O)N[C@H]6CC[C@H](Oc7ccc(C#N)c(Cl)c7)CC6)nn5)C4)C3)cc2)c2c(sc(C)c2C)-n2c(C)nnc21 [I-632] | < 0.5 | < 0.5 | < 0.5 | – | – | – |
| Cc1sc2c(c1C)C(c1ccc(CC3CCC4(CCCN(c5ccc(C(=O)N[C@H]6CC[C@H](Oc7ccc(C#N)c(Cl)c7)CC6)nn5)C4)C3)cn1)=N[C@@H](C)c1nnc(C)n1-2 (stereo partly drawn) [I-635] | – | – | – | < 0.5 | < 0.5 | < 0.5 |
| Cc1sc2c(c1C)C(c1ccc(CC3CCC4(CCCN(c5ccc(C(=O)N[C@H]6CC[C@H](Oc7ccc(C#N)c(Cl)c7)CC6)nn5)C4)C3)cn1)=N[C@@H](C)c1nnc(C)n1-2 (stereo partly drawn) [I-636] | – | – | – | < 0.5 | 0.5 to 1.5 | < 0.5 |
| Cc1sc2c(c1C)C(c1ccc(OCC3CCC4(CCCN(c5ccc(C(=O)N[C@H]6CC[C@H](Oc7ccc(C#N)c(Cl)c7)CC6)nn5)C4)C3)cc1)=N[C@@H](C)c1nnc(C)n1-2 (stereo partly drawn) [I-637] | – | – | – | < 0.5 | < 0.5 | < 0.5 |
